Source: ChEMBL document CHEMBL4610032, “Inhibitory effects of triarylpyrazole derivatives on LPS-induced nitric oxide and PGE2 productions in murine RAW 264.7 macrophages” (Bioorg Med Chem Lett, 2020)

Tests used:
[1] = Cytotoxicity against murine RAW264.7 cells assessed as cell viability at 10 uM relative to control; assay type: cell-based; settings: mouse, read-out: Activity
RAW264.7 [2] = experiment: Antiinflammatory activity against murine RAW264.7 cells assessed as inhibition of LPS-induced PGE2 production at 10 uM preincubated for 1 hr followed by LPS stimulation and measured after 24 hrs by EIA relative to control; assay type: functional; settings: Mus musculus
RAW264.7 [3] = experiment: Antiinflammatory activity against murine RAW264.7 cells assessed as inhibition of LPS-induced NO production at 10 uM preincubated for 1 hr followed by LPS stimulation and measured after 24 hrs by Griess assay relative to control; assay type: functional; settings: Mus musculus
RAW264.7 [4] = experiment: Antiinflammatory activity against murine RAW264.7 cells assessed as inhibition of LPS-induced PGE2 production at 10 nM preincubated for 1 hr followed by LPS stimulation and measured after 24 hrs by EIA relative to control; assay type: functional; settings: Mus musculus
RAW264.7 [5] = experiment: Antiinflammatory activity against murine RAW264.7 cells assessed as inhibition of LPS-induced PGE2 production preincubated for 1 hr followed by LPS stimulation and measured after 24 hrs by EIA; assay type: functional, cell-based; settings: Mus musculus
RAW264.7 [6] = experiment: Antiinflammatory activity against murine RAW264.7 cells assessed as downregulation of LPS-stimulated COX2 protein expression pretreated for 1 hr followed by LPS addition and measured after 24 hrs by Western blot analysis; assay type: functional, cell-based; settings: Mus musculus
RAW264.7 [7] = experiment: Antiinflammatory activity against murine RAW264.7 cells assessed as reduction in LPS-stimulated COX2 mRNA expression pretreated for 1 hr followed by LPS addition and measured after 4 hrs by qRT-PCR analysis; assay type: functional, cell-based; settings: Mus musculus
RAW264.7 [8] = experiment: Antiinflammatory activity against murine RAW264.7 cells assessed as inhibition of LPS-induced NO production at 40 uM preincubated for 1 hr followed by LPS stimulation and measured after 24 hrs by Griess assay relative to control; assay type: functional; settings: Mus musculus

| SMILES | viability at 10 µM [1] [%] | inhibition at 10 µM (RAW264.7 [2]) [%] | inhibition at 10 µM (RAW264.7 [3]) [%] | inhibition at 0.01 µM (RAW264.7 [4]) [%] | IC50 (RAW264.7 [5]) [µM] | inhibition (RAW264.7 [6]) | inhibition (RAW264.7 [7]) | inhibition at 40 µM (RAW264.7 [8]) [%] |
| --- | --- | --- | --- | --- | --- | --- | --- | --- |
| O=C(NCCCNc1cc(-c2cn(-c3ccccc3)nc2-c2cccc(O)c2)ccn1)c1ccccc1 | 145 | 12.6 | 2.1 | – | – | – | – | – |
| COc1cccc(-c2nn(-c3ccccc3)cc2-c2ccnc(NCCCNC(=O)Nc3ccccc3)c2)c1 | 143 | 56.3 | 22.2 | – | – | – | – | – |
| O=C(NCCNc1cc(-c2cn(-c3ccccc3)nc2-c2cccc(O)c2)ccn1)c1ccc(O)cc1 | 124 | -56.4 | 34.5 | – | – | – | – | – |
| COc1cccc(-c2nn(-c3ccccc3)cc2-c2ccnc(NCCNC(=O)Nc3ccccc3)c2)c1 | 143 | 53.9 | 12.2 | – | – | – | – | – |
| O=C(NCCCNc1cc(-c2cn(-c3ccccc3)nc2-c2cccc(O)c2)ccn1)c1cccc(C(F)(F)F)c1 | 123 | 11.6 | – | – | – | – | – | – |
| CS(=O)(=O)Nc1ccc([N+](=O)[O-])cc1OC1CCCCC1 [NS-398] | – | – | – | 59.5 | – | – | – | – |
| COc1cccc(-c2nn(-c3ccccc3)cc2-c2ccnc(NCCNC(=O)c3ccc(F)cc3)c2)c1 | 136 | 47.9 | 15.4 | – | – | – | – | – |
| O=C(NCCNc1cc(-c2cn(-c3ccccc3)nc2-c2cccc(O)c2)ccn1)c1ccc(F)cc1 | 127 | -1.9 | 20.4 | – | – | – | – | – |
| O=C(NCCNc1cc(-c2cn(-c3ccccc3)nc2-c2cccc(O)c2)ccn1)c1cccc(C(F)(F)F)c1 | 135 | 12.2 | 18.6 | – | – | – | – | – |
| COc1cccc(-c2nn(-c3ccccc3)cc2-c2ccnc(NCCNC(=O)Nc3cccc(C(F)(F)F)c3)c2)c1 | 165 | 69.9 | 26.1 | – | 5.11 | – | – | – |
| O=C(NCCNc1cc(-c2cn(-c3ccccc3)nc2-c2cccc(O)c2)ccn1)c1ccccc1 | 105 | 20.9 | 12.2 | – | – | – | – | – |
| COc1ccc(C(=O)NCCCNc2cc(-c3cn(-c4ccccc4)nc3-c3cccc(OC)c3)ccn2)cc1 | 112 | 75.4 | 48.8 | – | 2.94 | Dose-dependent effect | Dose-dependent effect | – |
| O=C(NCCCNc1cc(-c2cn(-c3ccccc3)nc2-c2cccc(O)c2)ccn1)c1ccc(O)cc1 | 126 | 31.1 | 39.7 | – | – | – | – | – |
| CC(=N)NCCCC[C@H](N)C(=O)O [L-NIL] | – | – | – | – | – | – | – | 31.5 |
| COc1ccc(C(=O)NCCNc2cc(-c3cn(-c4ccccc4)nc3-c3cccc(OC)c3)ccn2)cc1 | 116 | 59.6 | 12.3 | – | – | – | – | – |
| O=C(NCCCNc1cc(-c2cn(-c3ccccc3)nc2-c2cccc(O)c2)ccn1)c1ccc(F)cc1 | 120 | 63.1 | 32.6 | – | 7.06 | – | – | – |
| COc1cccc(-c2nn(-c3ccccc3)cc2-c2ccnc(NCCCNC(=O)c3ccccc3)c2)c1 | 118 | 6.1 | 18.7 | – | – | – | – | – |
| COc1cccc(-c2nn(-c3ccccc3)cc2-c2ccnc(NCCNC(=O)c3cccc(C(F)(F)F)c3)c2)c1 | 125 | 58.1 | 19.1 | – | – | – | – | – |
| COc1cccc(-c2nn(-c3ccccc3)cc2-c2ccnc(NCCNC(=O)Nc3ccc(Cl)c(Cl)c3)c2)c1 | 129 | 76.1 | 22 | – | 4.51 | – | – | – |
| COc1cccc(-c2nn(-c3ccccc3)cc2-c2ccnc(NCCCNC(=O)c3ccc(F)cc3)c2)c1 | 133 | 28.9 | 18.6 | – | – | – | – | – |
| COc1cccc(-c2nn(-c3ccccc3)cc2-c2ccnc(NCCCNC(=O)Nc3cccc(C(F)(F)F)c3)c2)c1 | 124 | – | 31.3 | – | – | – | – | – |
| COc1cccc(-c2nn(-c3ccccc3)cc2-c2ccnc(NCCNC(=O)c3ccccc3)c2)c1 | 132 | 36.2 | 12.8 | – | – | – | – | – |
| COc1cccc(-c2nn(-c3ccccc3)cc2-c2ccnc(NCCCNC(=O)Nc3ccc(Cl)c(Cl)c3)c2)c1 | 121 | 77.1 | 38.6 | – | 4.21 | Dose-dependent effect | – | – |
| COc1cccc(-c2nn(-c3ccccc3)cc2-c2ccnc(NCCCNC(=O)c3cccc(C(F)(F)F)c3)c2)c1 | 115 | 73.8 | 28.8 | – | 5.62 | – | – | – |
